Earlier results, collected in patent US20070218033A1, “Composition and method of treating hepatitis C” (priority 1991, published 2007).
Where two headings read alike, the source gives them in different places. Where no end group is shown, it is not given here.

Columns and labels:
[1] = system: response to influenze vaccine; conditions: subcutaneously twice weekly
[2] = system: Woodchuck Hepatitis Virus; conditions: woodchuck infected with Woodchuck Hepatitis Virus
[3] = system: hepatitis B virus (HBV); conditions: treated for a year
[4] = system: natural killer-cell activity; conditions: THNα1 and interferon together; immunosuppressed mice
[5] = system: nonsmall cell lung cancer
[6] = system: post-transfusion NANB hepatitis
[7] = system: chronic HCV infection
[8] = system: chronic hepatitis C (NANB hepatitis)
[9] = system: chronic NANB hepatitis; conditions: for proportion of patients with normal ALT levels at week 48: after treatment
[10] = system: HCV-related diseases; conditions: in vivo
[11] = 900 μgrams/m^2 subcutaneously after radiotherapy

Q: For “THNα1: 28 amino acidic polypeptide, molecular weight 3100, initially isolated from TF-5, sequenced and chemically synthesized (SDAAVDTSSEITTKDLKEKKEVVEEAEN; not fully specified; ends and bridges not checked; UniProt P06454 2-29, looked up)”, which “clinical or biochemical toxicity” value ([1]; drug recipients) is on record?
A: No clinical or biochemical toxicity

Q: And the “levels of antibody to influenza versus controls” value ([1]; six weeks post-vaccine)?
A: higher levels

Q: What about the “viral DNA replication” value [2] of the same compound?
A: suppressed

Q: What about the “patients with reduced levels of serum HBV DNA” value ([3]; pooled THNα1 (5) and TF-5 (2) patients) of the same compound?
A: 6 of the 7

Q: And the “patients initially positive for serum HBsAg who subsequently cleared this antigen” value ([3]; pooled THNα1 and TF-5 patients)?
A: 5 of 6

Q: And the “effect on natural killer-cell activity” value [4]?
A: synergistic effect

Q: What about the T-cell numbers [5, 11] of the same compound?
A: no increase

Q: And the radiation-suppressed immune function [5, 11]?
A: some restoration

Q: What about the “relapse-free survival and overall survival versus placebo group” value ([5]; 900 μgrams/m^2 subcutaneously twice weekly, or daily for two weeks then twice weekly, both treatment groups) of the same compound?
A: greater

Q: For α-interferon, which side effects ([6]; 1 MU/day) is on record?
A: virtually absent

Q: And the “patients who improved their serum alanine transaminase (ALT) levels within one month of starting therapy” value ([6]; 5 MU daily in seven patients, 1 MU daily in three patients, ten patients)?
A: eight of ten

Q: What about the side effects ([6]; 5 MU/day dose) of the same compound?
A: common

Q: What about the “degree of portal inflammation and loss of parenchymal hepatocytic necrosis in post-treatment liver biopsies” value ([6]; three patients with post-treatment liver biopsies) of the same compound?
A: marked improvement

Q: What about the “mean serum ALT and histological features of the liver” value ([7]; 2 MU subcutaneously three times weekly for six months, 21 patients) of the same compound?
A: improved significantly

Q: What about the “other patients with a decrease in mean ALT of more than 50%” value ([7]; 2 MU subcutaneously three times weekly for six months, number of patients) of the same compound?
A: three

Q: And the “complete response (decline in mean serum ALT to the normal range during therapy)” value ([7]; 2 MU subcutaneously three times weekly for six months, ten of 21 patients)?
A: 48%

Q: And the “patients still with normal ALT values six to twelve months after discontinuation of therapy” value ([7]; 2 MU three times weekly for six months, two patients)?
A: 10%

Q: What about the “relapse within six months after the completion of treatment” value ([8]; 1 MU) of the same compound?
A: 44%

Q: And the “responded to treatment (serum ALT)” value ([8]; 1 MU three times weekly for 24 weeks, nine of sixteen patients)?
A: 56%

Q: And the “relapse within six months after the completion of treatment” value ([8]; 3 MU)?
A: 51%

Q: And the “liver histology (regression of lobular and periportal inflammation)” value ([8]; 3 MU three times weekly for 24 weeks)?
A: histologic improvement

Q: And the “serum ALT level became completely normal” value ([8]; 3 MU three times weekly for 24 weeks, 22 of the 26 patients who responded)?
A: 85%

Q: What about the “proportion of patients with normal ALT levels at 24 weeks” value ([9]; 1 MU group) of the same compound?
A: 45%

Q: What about the “proportion of patients with normal ALT levels at week 48” value ([9]; 1 MU group) of the same compound?
A: 20%

Q: What about the “mean serum ALT levels during the 24 week treatment period” value ([9]; 1 MU three times a week) of the same compound?
A: decreased

Q: And the “proportion of patients with normal ALT levels at 24 weeks” value ([9]; 3 MU group)?
A: 39%

Q: And the “proportion of patients with normal ALT levels at week 48” value ([9]; 3 MU group)?
A: 28%

Q: And the “decrease of mean serum ALT levels during the 24 week treatment period” value ([9]; 3 MU three times a week)?
A: statistically significant

Q: What about the “relapse in disease activity among responders when interferon was stopped” value ([9]; fraction of the responders) of the same compound?
A: approximately half

Q: And the “severity of histological changes in repeat liver biopsy specimens” value ([9]; higher dose group (3 MU))?
A: significant decrease

Q: What about the “severity of histological changes in repeat liver biopsy specimens” value ([9]; lower dose group (1 MU)) of the same compound?
A: not in the lower dose group

Q: With `Nc1nc2c(ncn2COCCO)c(=O)[nH]1` [acyclovir] as the compound, how does the “effectiveness in HCV-related diseases” value [10] read?
A: ineffective
